In ChEMBL document CHEMBL1127105, “Adenosine-2-monophosphate derivatives: Structural requirements as substrates for inositol monophosphatase” (Bioorg Med Chem Lett, 1993):

Legend:
[1] = molecular target: T1, Inositol monophosphatase 1 (Bos taurus, UniProt P20456); assay: Tested for the inhibitory activity against bovine inositol monophosphatase by measuring concentration inhibiting the production of [14C]inositol from racemic inositol monophosphate (1) containing [14C]-1
T1 sequence (P20456 whole entry): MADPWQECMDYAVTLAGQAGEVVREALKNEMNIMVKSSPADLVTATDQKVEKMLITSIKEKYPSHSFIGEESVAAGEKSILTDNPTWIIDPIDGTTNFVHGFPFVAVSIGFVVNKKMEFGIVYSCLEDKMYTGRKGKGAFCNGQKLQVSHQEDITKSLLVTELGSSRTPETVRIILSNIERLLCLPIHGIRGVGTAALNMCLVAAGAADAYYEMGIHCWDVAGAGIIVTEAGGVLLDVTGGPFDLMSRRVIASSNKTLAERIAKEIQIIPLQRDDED

[2] = molecular target: T2, Inositol monophosphatase 1 (Bos taurus) (UniProt P20456); assay: Activity against the bovine inositol monophosphatase was determined by rate of release of inorganic phosphate at 1 mM substrate concentration, 1 mM of inositol-1-phosphate (1).
T2 sequence (whole entry): T1 sequence (P20456 whole entry)

Compound `O=P(O)(O)O[C@H]1CCC[C@H]1O` has an IC50 [1] of 5000 µM.

`O=P(O)(O)O[C@H]1CC[C@H](CO)[C@H]1O` gave an Activity [2] of under 0.05 and an IC50 [1] of 2100 µM.

With `O=P(O)(O)O[C@H]1CO[C@H](CO)[C@H]1O` the Activity [2] was 0.65 and the IC50 [1] was 2900 µM.

`O=P(O)(O)[C@H]1CC[C@H](O)C[C@H]1O` was tested, and the IC50 [1] was 7 µM.

For `Nc1ncnc2c1ncn2[C@@H]1O[C@H](CO)[C@@H](O)[C@H]1OP(=O)(O)O`, the Activity [2] was 0.48 and the IC50 [1] was 1300 µM.

`O=P(O)(O)O[C@@H]1CO[C@@H](CO)[C@@H]1O` gave an Activity [2] of 0.53 and an IC50 [1] of 1800 µM.

With `O=P(O)(O)O[C@H]1COC[C@H]1O` the Activity [2] was 0.53 and the IC50 [1] was 3600 µM.

With `O=P(O)(O)O[C@H]1CC[C@@H](CO)[C@H]1O` the Activity [2] was under 0.05 and the IC50 [1] was 310 µM.
